# Values of other authors, collected in patent US11098113B2, “Immunoglobulin single variable domains directed against macrophage migration inhibitory factor” (VIB VZW, priority 2016, dated 2021).
# Test system: LPS stimulated RAW264.7 macrophages
# Conditions: ISO-1 at 10 μM, same in vitro conditions; cited from earlier work
structure (smiles),measurement,value
"COC(=O)C[C@@H]1CC(c2ccc(O)cc2)=NO1 (racemic) [ISO-1, (S,R)-3-(4-hydroxyphenyl)-4,5-dihydro-5-isoxazole acetic acid methyl ester]",inhibition of TNF production,about 50%
